Reference: patent US20250115600A1, “COVALENT MODIFIERS OF AKT1 AND USES THEREOF” (Terremoto Biosciences, Inc., priority 2022, published 2025)

Columns and labels:
Test in all cases: Live cell target engagement (NanoBRET) in HEK293 cells
Assay type in all cases: cell-based
[1] = biological target: AKT1 WT (Homo sapiens (Human), UniProt P31749); conditions: HEK293, 2 hours at 37° C.
[2] = biological target: AKT1 E17K (Homo sapiens (Human), UniProt P31749, E17K); conditions: for IC50: HEK293, 2 hours at 37° C.
[3] = biological target: AKT2 (Homo sapiens (Human), UniProt P31751); conditions: HEK293, 2 hours at 37° C.
AKT2, sequence (P31751 whole entry): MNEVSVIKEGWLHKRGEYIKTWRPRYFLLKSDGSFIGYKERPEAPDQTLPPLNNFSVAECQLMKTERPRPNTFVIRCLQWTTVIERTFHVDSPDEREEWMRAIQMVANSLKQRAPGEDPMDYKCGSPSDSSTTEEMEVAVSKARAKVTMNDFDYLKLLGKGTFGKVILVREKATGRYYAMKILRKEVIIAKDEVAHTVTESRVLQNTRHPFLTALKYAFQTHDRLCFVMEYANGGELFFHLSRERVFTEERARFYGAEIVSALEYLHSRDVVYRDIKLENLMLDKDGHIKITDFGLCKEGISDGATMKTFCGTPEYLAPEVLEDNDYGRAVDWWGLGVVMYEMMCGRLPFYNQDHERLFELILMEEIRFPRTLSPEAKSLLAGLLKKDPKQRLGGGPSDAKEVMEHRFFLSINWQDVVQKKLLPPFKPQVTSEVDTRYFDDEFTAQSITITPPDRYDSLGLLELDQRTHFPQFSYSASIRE

AKT1 WT, sequence (P31749 whole entry): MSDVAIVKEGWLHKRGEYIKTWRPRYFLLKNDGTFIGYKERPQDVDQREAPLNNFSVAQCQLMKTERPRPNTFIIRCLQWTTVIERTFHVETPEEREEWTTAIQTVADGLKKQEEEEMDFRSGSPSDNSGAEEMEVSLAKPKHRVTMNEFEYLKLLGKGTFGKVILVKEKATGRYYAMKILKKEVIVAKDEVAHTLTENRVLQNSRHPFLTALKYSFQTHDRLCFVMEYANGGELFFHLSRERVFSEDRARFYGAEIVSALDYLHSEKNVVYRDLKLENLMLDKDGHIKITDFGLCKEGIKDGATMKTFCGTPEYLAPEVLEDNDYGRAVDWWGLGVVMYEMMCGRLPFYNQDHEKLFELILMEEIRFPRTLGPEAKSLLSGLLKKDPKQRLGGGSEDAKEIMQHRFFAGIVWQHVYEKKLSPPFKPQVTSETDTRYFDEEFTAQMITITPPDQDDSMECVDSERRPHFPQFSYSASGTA
AKT1 E17K, sequence (P31749 whole entry E17K): as the sequence (P31749 whole entry) above, with E17K counted along it

Compound | IC50 [1] [nM] | AKT1 E17K IC50: Selectivity vs AKT1 WT [2] | AKT1 E17K IC50: Selectivity vs AKT2 [2] | IC50 [2] [nM] | IC50 [3] [nM]
CC1(c2ccc3nc(-c4cccnc4N)n(-c4ccc(CNC(=O)Cc5ccc(C=O)c(O)c5)cc4)c3n2)CC1 [Example 18, N-({4-[2-(2-aminopyridin-3-yl)-5-(1-methylcyclopropyl)imidazo[4,5-b]pyridin 3-yl]phenyl}methyl)-2-(4-formyl-3-hydroxyphenyl)acetamide] | 100 to 500 | 6.1 | 150 | < 100 | > 500
Nc1ncccc1-c1nc2cccnc2n1-c1ccc(CNCCc2ccc(C=O)c(C(F)F)c2)cc1 [Compound 80, 4-{2-[({4-[2-(2-aminopyridin-3-yl)imidazo[4,5-b]pyridin-3-yl]phenyl}methyl)amino]ethyl}-2-(difluoromethyl)benzaldehyde] | 100 to 500 | 0.47 | 2.5 | 100 to 500 | > 500
COc1ccc2nc(-c3cccnc3N)n(-c3ccc(CNC(=O)Cc4ccc(C=O)c(O)c4)cc3)c2n1 [Compound 33, N-(4-(2-(2-aminopyridin-3-yl)-5-methoxy-3H-imidazo[4,5-b]pyridin-3-yl)benzyl)-2-(4-formyl-3-hydroxyphenyl)acetamide] | 100 to 500 | 23 | 400 | < 100 | > 500
CN(CCc1ccc(-n2c(-c3cccnc3N)nc3ccc(-c4ccccc4)nc32)cc1)Cc1ccc(C=O)c(O)c1 [Compound 39, 4-{[(2-{4-[2-(2-aminopyridin-3-yl)-5-phenylimidazo[4,5-b]pyridin-3-yl]phenyl}ethyl)(methyl)amino]methyl}-2-hydroxybenzaldehyde] | 100 to 500 | 1.5 | 5.2 | < 100 | 100 to 500
Nc1ncccc1-c1nc2ccc(-c3ccccc3)nc2n1-c1ccc(CNc2cc(-c3ccc(O)c(C=O)c3)ccn2)cc1 [Compound 81, 5-(2-((4-(2-(2-aminopyridin-3-yl)-5-phenyl-3H-imidazo[4,5-b]pyridin-3-yl)benzyl)amino)pyridin-4-yl)-2-hydroxybenzaldehyde] | 100 to 500 | 0.51 | 1.7 | 100 to 500 | 100 to 500
Nc1ncccc1-c1nc2ccc(-c3ccccc3)nc2n1-c1ccc(CNC(=O)C2(c3ccc(C=O)c(O)c3F)CC2)cc1 [Compound 59, N-(4-(2-(2-aminopyridin-3-yl)-5-phenyl-3H-imidazo[4,5-b]pyridin-3-yl)benzyl)-1-(2-fluoro-4-formyl-3-hydroxyphenyl)cyclopropane-1-carboxamide] | > 500 | 5.7 | 39 | 100 to 500 | > 500
CN(C)C(=O)Nc1cc(CC(=O)NCc2ccc(-n3c(-c4cccnc4N)nc4cccnc43)cc2)ccc1C=O [Compound 43, N-(4-(2-(2-aminopyridin-3-yl)-3H-imidazo[4,5-b]pyridin-3-yl)benzyl)-2-(3-(3,3-dimethylureido)-4-formylphenyl)acetamide] | 100 to 500 | 4.5 | >150 | < 100 | > 500
Nc1ncccc1-c1nc2ccc(Cl)nc2n1-c1ccc(CNCCc2ccc(C=O)c(O)c2)cc1 [Compound 99, 4-{2-[({4-[2-(2-aminopyridin-3-yl)-5-chloroimidazo[4,5-b]pyridin-3-yl]phenyl}methyl)amino]ethyl}-2-hydroxybenzaldehyde] | 100 to 500 | 3.7 | 8.4 | < 100 | > 500
Nc1ncccc1-c1nc2ccc(-c3ccccc3)nc2n1-c1ccc(CNC(=O)Cc2cnc(C=O)c(O)c2)cc1 [Compound 77, N-(4-(2-(2-aminopyridin-3-yl)-5-phenyl-3H-imidazo[4,5-b]pyridin-3-yl)benzyl)-2-(6-formyl-5-hydroxypyridin-3-yl)acetamide] | 100 to 500 | 4.3 | 39 | < 100 | > 500

More lines, now with the values ahead:

IC50 [1] [nM] | AKT1 E17K IC50: Selectivity vs AKT1 WT [2] | AKT1 E17K IC50: Selectivity vs AKT2 [2] | IC50 [2] [nM] | IC50 [3] [nM] | Compound
< 100 | 5 | 12 | < 100 | 100 to 500 | CC(NCCc1ccc(O)c(C=O)c1)c1ccc(-n2c(-c3cccnc3N)nc3ccc(-c4ccccc4)nc32)cc1 (stereo not drawn) [Compound 126, 5-(2-((1-(4-(2-(2-aminopyridin-3-yl)-5-phenyl-3H-imidazo[4,5-b]pyridin-3-yl)phenyl)ethyl)amino)ethyl)-2-hydroxybenzaldehyde]
< 100 | 2.4 | 190 | < 100 | > 500 | Nc1ncccc1-c1nc2ccc(C3CC3)nc2n1-c1ccc(CNC(=O)C(F)c2ccc(C=O)c(O)c2)cc1 (stereo not drawn) [Compound 26, N-({4-[2-(2-aminopyridin-3-yl)-5-cyclopropylimidazo[4,5-b]pyridin-3-yl]phenyl}methyl)-2-fluoro-2-(4-formyl-3-hydroxyphenyl)acetamide]
< 100 | 0.5 | 2 | < 100 | 100 to 500 | CN(Cc1ccc(-n2c(-c3cccnc3N)nc3ccc(-c4ccccc4)nc32)cc1)C(=O)Cc1ccc(C=O)c(O)c1 [Compound 64, N-(4-(2-(2-aminopyridin-3-yl)-5-phenyl-3H-imidazo[4,5-b]pyridin-3-yl)benzyl)-2-(4-formyl-3-hydroxyphenyl)-N-methylacetamide]
< 100 | 3.1 | 190 | < 100 | > 500 | Nc1ncccc1-c1nc2ccc(C3CC3)nc2n1-c1ccc(CNC(=O)Cc2ccc(C=O)c(O)c2Cl)cc1 [Example 22, N-({4-[2-(2-aminopyridin-3-yl)-5-cyclopropylimidazo[4,5-b]pyridin-3-yl]phenyl}methyl)-2-(2-chloro-4-formyl-3-hydroxyphenyl)acetamide]
< 100 | 3.5 | 830 | < 100 | > 500 | Nc1ncccc1-c1nc2ccc(C3CC3)nc2n1-c1ccc(CNC(=O)Cc2ccc(C=O)c(O)c2)cc1 [Compound 66, N-({4-[2-(2-aminopyridin-3-yl)-5-cyclopropylimidazo[4,5-b]pyridin-3-yl]phenyl}methyl)-2-(4-formyl-3-hydroxyphenyl)acetamide]
< 100 | 4.3 | 120 | < 100 | > 500 | Nc1ncccc1-c1nc2ccc(NC3CC3)nc2n1-c1ccc(CNC(=O)Cc2ccc(C=O)c(O)c2)cc1 [Compound 25, N-({4-[2-(2-aminopyridin-3-yl)-5-(cyclopropylamino)imidazo[4,5-b]pyridin-3-yl]phenyl}methyl)-2-(4-formyl-3-hydroxyphenyl)acetamide]
< 100 | 2.9 | 32 | < 100 | > 500 | Nc1ncccc1-c1nc2ccc(-c3ccccc3)nc2n1-c1ccc(CNC(=O)Cc2ccc(C=O)c(O)c2C(F)(F)F)cc1 [Example 5, N-(4-(2-(2-aminopyridin-3-yl)-5-phenyl-3H-imidazo[4,5-b]pyridin-3-yl)benzyl)-2-(4-formyl-3-hydroxy-2-(trifluoromethyl)phenyl)acetamide]
< 100 | 1.2 | 37 | < 100 | 100 to 500 | Nc1ncccc1-c1nc2ccc(-c3ccccc3)nc2n1-c1ccc(CNC(=O)C(F)c2ccc(C=O)c(O)c2)cc1 (stereo not drawn) [Compound 65, N-({4-[2-(2-aminopyridin-3-yl)-5-phenylimidazo[4,5-b]pyridin-3-yl]phenyl}methyl)-2-fluoro-2-(4-formyl-3-hydroxyphenyl)acetamide]
< 100 | 1.2 | 3 | < 100 | < 100 | Nc1ncccc1-c1nc2ccc(-c3cccc(N4CCOCC4)c3)nc2n1-c1ccc(CNC(=O)Cc2ccc(C=O)c(O)c2Cl)cc1 [Example 13, N-({4-[2-(2-aminopyridin-3-yl)-5-[3-(morpholin-4-yl)phenyl]imidazo[4,5-b]pyridin-3-yl]phenyl}methyl)-2-(2-chloro-4-formyl-3-hydroxyphenyl)acetamide]
< 100 | 0.56 | 1.9 | < 100 | 100 to 500 | COc1cc(CCNCc2ccc(-n3c(-c4cccnc4N)nc4ccc(-c5ccccc5)nc43)cc2)ccc1C=O [Compound 97, 4-{2-[({4-[2-(2-aminopyridin-3-yl)-5-phenylimidazo[4,5-b]pyridin-3-yl]phenyl}methyl)amino]ethyl}-2-methoxybenzaldehyde]
< 100 | 0.93 | 6.8 | < 100 | < 100 | Nc1ncccc1-c1nc2ccc(-c3cccc(N4CCOCC4)c3)nc2n1-c1ccc(CNC(=O)Cc2ccc(C=O)c(O)c2)cc1 [Compound 55, N-({4-[2-(2-aminopyridin-3-yl)-5-[3-(morpholin-4-yl)phenyl]imidazo[4,5-b]pyridin-3-yl]phenyl}methyl)-2-(4-formyl-3-hydroxyphenyl)acetamide]
< 100 | 4 | 150 | < 100 | > 500 | Nc1ncccc1-c1nc2ccc(-c3cccnc3)nc2n1-c1ccc(CNC(=O)Cc2ccc(C=O)c(O)c2)cc1 [Compound 68, N-(4-(2-(2-aminopyridin-3-yl)-5-(pyridin-3-yl)-3H-imidazo[4,5-b]pyridin-3-yl)benzyl)-2-(4-formyl-3-hydroxyphenyl)acetamide]
